In ChEMBL document CHEMBL3808317, “Straightforward conversion of decoquinate into inexpensive tractable new derivatives with significant antimalarial activities” (Bioorg Med Chem Lett, 2016):
≈ marks a conversion by molar mass, not a printed value. Calls of active or inactive are those of the source. No cut-off for these calls is given here.

How the values were obtained:
Plasmodium falciparum [1] = assay: Antimalarial activity against chloroquine-sensitive asexual Plasmodium falciparum NF54 infected in human erythrocytes assessed as inhibition of parasite proliferation at 5 uM after 96 hrs by SYBR Green I fluorescence based assay relative to control; type: functional; conditions: NF54, 96 h
Plasmodium falciparum [2] = assay: Antimalarial activity against chloroquine-sensitive asexual Plasmodium falciparum NF54 infected in human erythrocytes assessed as inhibition of parasite proliferation at 1 uM after 96 hrs by SYBR Green I fluorescence based assay relative to control; type: functional; conditions: NF54, 96 h
[3] = Cytotoxicity against human WI38 cells assessed as growth inhibition after 48 hrs by sulforhodamine B assay; type: cell-based; conditions: WI-38, 48 h
Plasmodium falciparum [4] = assay: Antimalarial activity against chloroquine-sensitive asexual Plasmodium falciparum NF54 infected in human erythrocytes assessed as inhibition of parasite proliferation at 100 to 500 nM after 96 hrs by SYBR Green I fluorescence based assay; type: functional, organism-based
Plasmodium falciparum [5] = assay: Antimalarial activity against chloroquine-sensitive asexual Plasmodium falciparum NF54 infected in human erythrocytes assessed as inhibition of parasite proliferation after 96 hrs by SYBR Green I fluorescence based assay; type: functional, organism-based; conditions: NF54, 96 h
Plasmodium falciparum [6] = assay: Antimalarial activity against multidrug resistant Plasmodium falciparum K1 infected in human erythrocytes assessed as inhibition of parasite proliferation after 96 hrs by SYBR Green I fluorescence based assay; type: functional, organism-based; conditions: K1, 96 h
Plasmodium falciparum [7] = assay: Antimalarial activity against multidrug resistant Plasmodium falciparum W2 infected in human erythrocytes assessed as inhibition of parasite proliferation after 96 hrs by SYBR Green I fluorescence based assay; type: functional, organism-based; conditions: W2, 96 h
[8] = Resistance index, ratio of IC50 for multi-drug-resistant Plasmodium falciparum K1 infected in human erythrocytes to IC50 for chloroquine-sensitive asexual Plasmodium falciparum NF54 infected in human erythrocytes; type: functional
[9] = Resistance index, ratio of IC50 for multi-drug-resistant Plasmodium falciparum W2 infected in human erythrocytes to IC50 for chloroquine-sensitive asexual Plasmodium falciparum NF54 infected in human erythrocytes; type: functional
[10] = Selectivity index, ratio of IC50 for human WI38 cells to IC50 chloroquine-sensitive asexual Plasmodium falciparum NF54 infected in human erythrocytes; type: toxicity, cell-based, WI-38; conditions: read-out: Ratio IC50
[11] = Lipophilicity, log P of compound; type: physicochemical; conditions: octanol/water
[12] = Acidic dissociation constant, pKa of compound; type: physicochemical
[13] = Solubility of compound in water; type: physicochemical

`CCCCCCCCCCOc1cc2c(=O)c(C(=O)OCC)cn(S(C)(=O)=O)c2cc1OCC` showed an inhibition at 5 µM (Plasmodium falciparum [1]) greater than 50% and an inhibition at 1 µM (Plasmodium falciparum [2]) greater than 70%.
`CCCCCCCCCCOc1cc2c(=O)c(C(=O)N3CCOCC3)cn(C(C)=O)c2cc1OCC` gave an inhibition at 5 µM (Plasmodium falciparum [1]) greater than 50% and an inhibition at 1 µM (Plasmodium falciparum [2]) greater than 70%.
With `CC[C@H]1CN2CCc3cc(OC)c(OC)cc3[C@@H]2C[C@@H]1C[C@H]1NCCc2cc(OC)c(OC)cc21` [EMETINE] the IC50 [3] was 50 nM.
Work on `CCCCCCCCCCOc1cc2c(=O)c(C(=O)OCC)cn(S(=O)(=O)C3CC3)c2cc1OCC` yielded an inhibition at 5 µM (Plasmodium falciparum [1]) greater than 50% and an inhibition at 1 µM (Plasmodium falciparum [2]) greater than 70%.
In the case of `CCCCCCCCCCOc1cc2c(=O)c(C(=O)NCc3ccc(F)cc3)c[nH]c2cc1OCC`, the inhibition at 5 µM (Plasmodium falciparum [1]) is reported as greater than 50%, the inhibition at 1 µM (Plasmodium falciparum [2]) is reported as greater than 70% and the inhibition (Plasmodium falciparum [4]) is reported as “Active”. The IC50 (Plasmodium falciparum [5]) was 33.1 nM, the IC50 (Plasmodium falciparum [6]) was 63.1 nM and the IC50 (Plasmodium falciparum [7]) was 8.6 nM. The “Ratio IC50” value [8] was 1.9, the “Ratio IC50” value [9] was 0.2 and the IC50 [3] was greater than 100000 nM. The selectivity ratio [10] was greater than 3020.
For `CCCCCCCCCCOc1cc2c(=O)c(C(=O)OCC)cn(C(=O)CC)c2cc1OCC`, the inhibition at 5 µM (Plasmodium falciparum [1]) was greater than 50%, the inhibition at 1 µM (Plasmodium falciparum [2]) was greater than 70% and the inhibition (Plasmodium falciparum [4]) was “Active”. It also gave an IC50 (Plasmodium falciparum [5]) of 15.4 nM, an IC50 (Plasmodium falciparum [6]) of 48.9 nM and an IC50 (Plasmodium falciparum [7]) of 11.5 nM. For the same molecule, the “Ratio IC50” value [8] was 3.2, the “Ratio IC50” value [9] was 0.8 and the IC50 [3] was greater than 100000 nM. For the same molecule, the selectivity ratio [10] was greater than 6490.
For `CCCCCCCCCCOc1cc2c(O)c(C(=O)OCC)cnc2cc1OCC` [DECOQUINATE], the inhibition at 5 µM (Plasmodium falciparum [1]) was greater than 50%, the inhibition at 1 µM (Plasmodium falciparum [2]) was greater than 70% and the inhibition (Plasmodium falciparum [4]) was “Active”. It also gave an IC50 (Plasmodium falciparum [5]) of 26.6 nM, an IC50 (Plasmodium falciparum [6]) of 64.9 nM and an IC50 (Plasmodium falciparum [7]) of 15.4 nM. For the same molecule, the “Ratio IC50” value [8] was 2.4, the “Ratio IC50” value [9] was 0.6 and the IC50 [3] was greater than 100000 nM. The selectivity ratio [10] was greater than 3760, the logP [11] was 8.19 and the pKa [12] was 9.81. It also gave a solubility [13] of 0.06 µg/mL (≈ 0.144 µM).
In the case of `CCCCCCCCCCOc1cc2c(=O)c(C(=O)OCC)cn(C(C)=O)c2cc1OCC`, the inhibition at 5 µM (Plasmodium falciparum [1]) is reported as greater than 50%, the inhibition at 1 µM (Plasmodium falciparum [2]) is reported as greater than 70% and the inhibition (Plasmodium falciparum [4]) is reported as “Active”. The IC50 (Plasmodium falciparum [5]) was 4.9 nM, the IC50 (Plasmodium falciparum [6]) was 12 nM and the IC50 (Plasmodium falciparum [7]) was 8.5 nM. For the same molecule, the “Ratio IC50” value [8] was 2.5, the “Ratio IC50” value [9] was 1.7 and the IC50 [3] was greater than 100000 nM. The selectivity ratio [10] was greater than 20400.
Work on `CCCCCCCCCCOc1cc2c(=O)c(C(=O)NCc3ccco3)c[nH]c2cc1OCC` yielded an inhibition at 5 µM (Plasmodium falciparum [1]) greater than 50% and an inhibition at 1 µM (Plasmodium falciparum [2]) greater than 70%.
For `CCCCCCCCCCOc1cc2c(=O)c(C(=O)NCCCn3ccnc3)c[nH]c2cc1OCC`, the inhibition at 5 µM (Plasmodium falciparum [1]) was greater than 50% and the inhibition at 1 µM (Plasmodium falciparum [2]) was greater than 70%.
With `CCCCCCCCCCOc1cc2c(=O)c(C(=O)NCCOC)c[nH]c2cc1OCC` the inhibition at 5 µM (Plasmodium falciparum [1]) was greater than 50% and the inhibition at 1 µM (Plasmodium falciparum [2]) was greater than 70%.
In the case of `CCCCCCCCCCOc1cc2c(=O)c(C(=O)NCCOCCO)c[nH]c2cc1OCC`, the inhibition at 5 µM (Plasmodium falciparum [1]) is reported as greater than 50%, the inhibition at 1 µM (Plasmodium falciparum [2]) is reported as greater than 70% and the inhibition (Plasmodium falciparum [4]) is reported as “Active”. It also gave an IC50 (Plasmodium falciparum [5]) of 40.4 nM, an IC50 (Plasmodium falciparum [6]) of 64.8 nM and an IC50 (Plasmodium falciparum [7]) of 18.5 nM. For the same molecule, the “Ratio IC50” value [8] was 1.6, the “Ratio IC50” value [9] was 0.5 and the IC50 [3] was 43900 nM. It also gave a selectivity ratio [10] of 1090.
For `CCCCCCCCCCOc1cc2c(=O)c(C(=O)OCC)cn(C(=O)N3CCCCC3)c2cc1OCC`, the inhibition at 5 µM (Plasmodium falciparum [1]) was greater than 50%, the inhibition at 1 µM (Plasmodium falciparum [2]) was greater than 70% and the inhibition (Plasmodium falciparum [4]) was “Active”. It also gave an IC50 (Plasmodium falciparum [5]) of 18.3 nM, an IC50 (Plasmodium falciparum [6]) of 89.1 nM and an IC50 (Plasmodium falciparum [7]) of 28.2 nM. For the same molecule, the “Ratio IC50” value [8] was 4.9, the “Ratio IC50” value [9] was 1.5 and the IC50 [3] was 8500 nM. For the same molecule, the selectivity ratio [10] was 465.
For `CCCCCCCCCCOc1cc2c(=O)c(C(=O)NCc3ccccc3F)c[nH]c2cc1OCC`, the inhibition at 5 µM (Plasmodium falciparum [1]) was greater than 50% and the inhibition at 1 µM (Plasmodium falciparum [2]) was greater than 70%.
Work on `CO[C@H]1O[C@@H]2O[C@@]3(C)CC[C@H]4[C@H](C)CC[C@@H]([C@H]1C)[C@@]24OO3` [ARTEMETHER] yielded an IC50 (Plasmodium falciparum [5]) of 5.77 nM, an IC50 (Plasmodium falciparum [6]) of 7.26 nM and an IC50 (Plasmodium falciparum [7]) of 4.5 nM. For the same molecule, the “Ratio IC50” value [8] was 1.3 and the “Ratio IC50” value [9] was 0.8.
For `C[C@H]1[C@H](OC(=O)CCC(=O)O)O[C@@H]2O[C@@]3(C)CC[C@H]4[C@H](C)CC[C@@H]1[C@@]24OO3` [ARTESUNATE], the IC50 (Plasmodium falciparum [5]) was 7.88 nM, the IC50 (Plasmodium falciparum [6]) was 8.97 nM and the IC50 (Plasmodium falciparum [7]) was 6.77 nM. For the same molecule, the “Ratio IC50” value [8] was 1.4, the “Ratio IC50” value [9] was 0.8 and the IC50 [3] was greater than 100000 nM. It also gave a selectivity ratio [10] greater than 12700.
Molecule `CCCCCCCCCCOc1cc2c(=O)c(C(=O)NCCN(C)C)c[nH]c2cc1OCC` has an inhibition at 5 µM (Plasmodium falciparum [1]) greater than 50% and an inhibition at 1 µM (Plasmodium falciparum [2]) greater than 70%.
With `CCCCCCCCCCOc1cc2c(=O)c(C(=O)N3CCOCC3)cn(S(=O)(=O)C3CC3)c2cc1OCC` the inhibition at 5 µM (Plasmodium falciparum [1]) was greater than 50% and the inhibition at 1 µM (Plasmodium falciparum [2]) was greater than 70%.
For `CCCCCCCCCCOc1cc2c(=O)c(C(=O)OCC)cn(C(=O)N(C)C)c2cc1OCC`, the inhibition at 5 µM (Plasmodium falciparum [1]) was greater than 50% and the inhibition at 1 µM (Plasmodium falciparum [2]) was greater than 70%.
